Measured values reported in patent publication US20260109674A1, “ALLOSTERIC MODULATION OF MUSCARINIC ACETYLCHOLINE RECEPTOR EFFICACY” (The University of Toledo, priority 2022, published 2026).
Marks after values point to notes of the source that are not given here.

What was measured:
[1] = system: wild-type zebrafish larvae; experiment: Maximum tolerated concentration (MTC) determination in zebrafish larvae; assay type: in vivo, Danio rerio; details: after 24-hour exposure; Table 3
Method: Determination of maximum tolerated concentration was completed by placing 5 days post fertilization (dpf) wild-type zebrafish larvae in a 24 well plate at 6 fish per well, and one compound concentration per well. […] Death was determined by the absence of heartbeat. Additional endpoints were used to assess toxicity at non-lethal concentrations such as startle capacity (poke stimulus), abnormalities in swimming behavior (loss of dorsoventral balance), and gross morphological deformities (bent body). […] The MTC determination was used to select three doses of each compound (low, medium, high dose) to be used in behavioral assays.

[2] = system: wild-type zebrafish larvae; experiment: General locomotor assay in zebrafish larvae (locomotor activity, repetitive behaviors); assay type: in vivo, Danio rerio; details: Table 3; test concentration not given; N = 12
Method: Five days post fertilization (dpf) zebrafish larvae were exposed to a range of nonlethal concentrations of the compounds in a 24-well plate with appropriate controls. The movement of each larval zebrafish was monitored with the Noldus behavior recording system (Noldus Information Technology, Leesburg VA) and quantified using EthoVision® XT 15 software (Noldus Information Technology, Leesburg VA). The plate was immediately placed in the incubator for a 30-minute exposure period. After 30 minutes, the plate was transferred to the Noldus system and swimming behavior was recorded in 100% light for 30 minutes to measure spontaneous swimming behavior. The light was switched off for 10 minutes (dark period) and then switched on for 10 minutes (light period), which was then repeated for two additional cycles. In total, the larvae were exposed to three cycles of alternating 10-minute dark and light periods (100% darkness-to-100% light). […]
All data for exposure and the behavioral end points were analyzed by one-way ANOVA (factor: drug conc) followed by a Dunnett's multiple comparisons test for post hoc significance between drug concentration and control group. Statistically significant differences are noted as follows: *, p<0.05; **, p<0.01; ***, p<0.001.

[3] = target: T1, M1 muscarinic receptors expressed in CHO cells (Homo sapiens, UniProt P11229); experiment: [3H]-arachidonic acid release screen with and without ACh and modulator; assay type: cell-based; details: for Modulation of ACh activity (in words): [3H]AA release; for Modulation of ACh activity (in words) / Intrinsic agonist activity (in words): modulator 10 μM; for Intrinsic agonist activity (in words): without ACh
T1 construct: expressed in transfected cells; host or cells: CHO (CHO-hM1, stably transfected)
T1 sequence (P11229 1-460): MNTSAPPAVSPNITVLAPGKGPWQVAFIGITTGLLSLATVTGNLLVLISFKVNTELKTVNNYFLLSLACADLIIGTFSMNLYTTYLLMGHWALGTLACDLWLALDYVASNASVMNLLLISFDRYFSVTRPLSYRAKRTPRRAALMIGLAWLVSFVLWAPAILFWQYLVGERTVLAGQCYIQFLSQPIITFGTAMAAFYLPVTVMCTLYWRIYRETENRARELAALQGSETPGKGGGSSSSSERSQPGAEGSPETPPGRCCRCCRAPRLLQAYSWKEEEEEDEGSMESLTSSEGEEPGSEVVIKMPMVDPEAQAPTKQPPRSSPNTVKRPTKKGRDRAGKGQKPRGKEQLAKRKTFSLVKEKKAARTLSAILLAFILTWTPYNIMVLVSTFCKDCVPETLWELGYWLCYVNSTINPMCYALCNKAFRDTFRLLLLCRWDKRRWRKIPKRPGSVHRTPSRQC
Method: CHO cells expressing human M1 muscarinic receptors were cultured at 37° C. in a 5% CO2 atmosphere in F12 medium supplemented with 5% fetal bovine serum, 100 units/mL penicillin, and 100 μg/mL streptomycin.
Measurement of [^3H]AA release was performed. Stably transfected CHO-hM1 or CHO-hM3 cells were seeded on 24-well plates (Greiner Bio-One GmbH, Frickenhausen, Germany) at a density of 5.0×10^4 cells/well in 0.5 ml of F-12 medium. Cells were incubated until they attached (approximately 3 h), followed by the addition of [^3H]AA to a final concentration of 0.05 μCi of [^3H]AA per well. The cells were then grown for 16 to 20 h before the assay was performed. [^3H]AA release was measured in Eagle's basal medium with 20 mM HEPES and 2 mg/ml fatty acid-free bovine serum albumin (EM-BSA). Cells were rinsed twice with EM-BSA, followed by the addition of EM-BSA media containing experimental agents and incubated for 1 h at 37° C. The assay was terminated by aspiration of the media, and the amount of [^3H]AA released was determined by liquid scintillation counting (Beckman-Coulter LS6500).
For some assays, pretreatment with phenoxybenzamine (POB) was employed, as indicated, to reduce the number of available receptors per cell. Stock POB was made up at 10 mM in ethanol and stored at −20° C. Each well was pretreated with 0.5 ml of the appropriate concentration in PBS with 1 mM CaCl2 and 1 mM MgCl2 (PBS++) for 30 min at 37° C., followed by 5 washes with PBS++. After pretreatment, the normal protocol was followed as above.
Tabulated [^3H]AA release data are represented as a fraction of maximal release in the presence of 100 μM ACh or as the fraction of release elicited by the appropriate concentration of ACh alone, as indicated dose-response curves were normalized to the maximal response of ACh without allosteric ligand. Some response curves were analyzed using the empirical four-parameter equation: […]
Disintegration per minute (DPM) values for a single compound were obtained in triplicate, and each compound was evaluated on three separate 24-well plates. The mean values for each condition from each of the three 24-well plates were used for the statistical analysis. The baseline mean was subtracted from each value, then normalized to the mean response produced by 100 μM ACh (set at 1.0). Statistical analyses were completed on the normalized values via one-way repeated measures ANOVA with Tukey's post hoc test. Statistically significant differences are noted as follows: *, p<0.05; **, p<0.01; ***, p<0.001.

[4] = 10 μM modulator, Table 4, N = 4-5

| SMILES | Maximum Tolerated Concentration [1] | Ratio of response of ACh with modulator to response of ACh alone, 0.1 μM ACh ([3]; 10 μM modulator, Table 1) | Ratio of response of ACh with modulator to response of ACh alone, 100 μM ACh ([3]; 10 μM modulator, Table 1) | Stimulation of [3H]AA release, No ACh (fraction of stimulation above the control) ([3]; 10 μM modulator, Table 1) | also measured |
| --- | --- | --- | --- | --- | --- |
| CCCCc1oc2ccccc2c1C(=O)c1cc(I)c(OCCN(CC)CC)c(I)c1 [Amiodarone, reference compound] | 10 µM |  |  |  |  |
| COc1ccc(Cn2cc(C(=O)O)c(=O)c3ccccc32)cc1 [BQCA, reference compound] |  | 2.34 ± 0.23 | 0.86 ± 0.03 | 0.37 ± 0.04 | Angular Velocity [2]: 141.8 ± 14.9* % of control; Total Distance Moved [2]: 72.0 ± 10.0* % of control; Variance of Turn Angle [2]: 119.6 ± 7.0* % of control; Ratio of response of ACh with modulator to response of ACh alone, 0.1 μM ACh ([3]; 3 μM modulator, Table 1): 2.43 ± 0.19; Ratio of response of ACh with modulator to response of ACh alone, 100 μM ACh ([3]; 3 μM modulator, Table 1): 0.99 ± 0.02; Stimulation of [3H]AA release, No ACh (fraction of stimulation above the control) ([3]; 3 μM modulator, Table 1): 0.06 ± 0.06 |
| CCCCc1oc2ccccc2c1C(=O)c1cc(I)c(OCCNCC)c(I)c1.Cl [Compound 1, (2-butylbenzofuran-3-yl)(4-(2-(ethylamino)ethoxy)-3,5-diiodophenyl)methanone hydrochloride] | 3 µM | 0.75 ± 0.08 | 0.67 ± 0.02 | 0.22 ± 0.01 | Modulation of ACh activity (in words) [3]: weaker efficacy PAM relative to amiodarone |
| CCCCc1oc2ccccc2c1C(=O)c1cc(I)c(OCCN(CC)C(C)=O)c(I)c1 [Compound 5a, N-(2-(4-(2-butylbenzofuran-3-carbonyl)-2,6-diiodophenoxy)ethyl)-N-ethylacetamide] | 10 µM | 2.22 ± 0.26 | 1.58 ± 0.03 | 0.17 ± 0.04 | Increase of mAChR activity compared to treatment with ACh alone ([3]; 10 μM modulator): 70%; Intrinsic agonist activity (in words) [3]: significant intrinsic agonist activity |
| CCCCc1oc2ccccc2c1C(=O)c1cc(I)c(OCCN(CC)C(=O)c2ccccc2)c(I)c1 [Compound 5b, N-(2-(4-(2-butylbenzofuran-3-carbonyl)-2,6-diiodophenoxy)ethyl)-N-ethylbenzamide] | 10 µM | 1.34 ± 0.05 | 1.26 ± 0.05 | 0.02 ± 0.01 | Increase of mAChR activity compared to treatment with ACh alone ([3]; 10 μM modulator): 80%; Intrinsic agonist activity (in words) [3]: lacked intrinsic activity |
| CCCCc1oc2ccccc2c1C(=O)c1ccc(OC)cc1 [Compound 6a, (2-butylbenzofuran-3-yl)(4-methoxyphenyl)methanone] | 3 µM | 1.18 ± 0.06 | 1.03 ± 0.03 | 0.05 ± 0.01 |  |
| CCCCc1oc2ccccc2c1C(=O)c1cc(I)c(OC)c(I)c1 [Compound 6b, (2-butylbenzofuran-3-yl)(3,5-diiodo-4-methoxyphenyl)methanone] | 30 µM | 1.6 ± 0.07 | 1.32 ± 0.08 | 0.06 ± 0.01 | Modulation of ACh activity (in words) [3]: increased ACh activity |
| CCCCc1oc2ccccc2c1C(=O)c1ccc(OCCN(CC)CC)cc1 [Compound 6c, (2-butylbenzofuran-3-yl)(4-(2-(diethylamino)ethoxy)phenyl)methanone] | 3 µM | 0.46 ± 0.17 | 1.05 ± 0.05 | 0.05 ± 0.04 | Modulation of ACh activity (in words) [3]: decreased ACh activity |
| COc1ccc(CN2C(=O)C(=O)c3ccccc32)cc1I [Compound 8b, 1-(3-iodo-4-methoxybenzyl)indoline-2,3-dione] | 10 µM | 1.81 ± 0.04 | 1.24 ± 0.01 | 0.08 ± 0.01 |  |
| COc1ccc(CN2C(=O)C(=O)c3ccccc32)cc1Br [Compound 8d, 1-(3-bromo-4-methoxybenzyl)indoline-2,3-dione] | 100 µM | 1.31 ± 0.06 | 0.87 ± 0.01 | 0.04 ± 0.01 |  |
| COc1c(Cl)cc(CN2C(=O)C(=O)c3ccccc32)cc1Cl [Compound 8e, 1-(3,5-dichloro-4-methoxybenzyl)indoline-2,3-dione] | 100 µM | 2.13 ± 0.11 | 1.28 ± 0.07 | 0.08 ± 0.01 |  |
| COc1ccc(CN2C(=O)C(=O)c3ccccc32)cc1Cl [Compound 8f, 1-(3-chloro-4-methoxybenzyl)indoline-2,3-dione] | 10 µM | 1.49 ± 0.03 | 1.13 ± 0.04 | 0.08 ± 0.02 |  |
| COc1c(I)cc(Cn2cc(C(=O)O)c(=O)c3ccccc32)cc1I [GK-1-47] |  |  |  |  | Ratio of response of ACh with modulator to response of ACh alone, 0.1 μM ACh [3, 4]: 2.46 ± 0.13; Ratio of response of ACh with modulator to response of ACh alone, 100 μM ACh [3, 4]: 1.33 ± 0.04; Stimulation of [3H]AA release, No ACh (fraction of stimulation above the control) [3, 4]: 0.24 ± 0.01 |
| O=C1C(=O)N(Cc2ccc(Br)cc2)c2ccccc21 [VU0119498, reference compound] |  | 1.22 ± 0.34 | 1.04 ± 0.07 | 0.07 ± 0.00 |  |
